Data reported in patent US10709707B2, “Methods of treating ocular conditions” (Oyster Point Pharma, Inc., priority 2016, dated 2020).
“And” between values parts separate entries of the source, which are not always exact repeats. Identical values can stand only once. “Also recorded” adds a separate entry of the source.

Legend:
[1] = stability in human liver microsomes, heat-treated human liver microsomes and human S9 fractions; assay type: in vitro ADME; details: all test systems
Source text: In human and monkey, the primary route of metabolism was through oxidation of the pyrrolidine ring (metabolite M02) before further metabolism via dioxidation to M1 or M3. In humans, parent accounted for 37% of extracellular radioactivity, M02 was 13.9%.M1 was 4.1% and M3 was 1.1%. In monkey, parent accounted for 14.2%, M02 was 5.0%, M1 was 5.8% and M3 was 29.4%. In the rat, the primary metabolite is an N-oxide-pyrimidine derivative (M9); it accounted for 71.9% of extracellular radioactivity while parent represented only 1.4%.

[2] = Cardiovascular safety, telemetry in conscious dogs po; assay type: in vivo, Dog: Beagle; details: beagle, dog, in vivo; 5, 10, 20 mg/kg po; read-out: terminal half-life (TK)
[3] = tested on: blood pressure, heart rate, ECG; assay: as above; assay type: in vivo, Dog: Beagle
[4] = target: T1, a4b4 (Homo sapiens, UniProt P30926+P43681); assay: Receptor binding a4b4
T1 sequence (P43681 29-627 limits assumed): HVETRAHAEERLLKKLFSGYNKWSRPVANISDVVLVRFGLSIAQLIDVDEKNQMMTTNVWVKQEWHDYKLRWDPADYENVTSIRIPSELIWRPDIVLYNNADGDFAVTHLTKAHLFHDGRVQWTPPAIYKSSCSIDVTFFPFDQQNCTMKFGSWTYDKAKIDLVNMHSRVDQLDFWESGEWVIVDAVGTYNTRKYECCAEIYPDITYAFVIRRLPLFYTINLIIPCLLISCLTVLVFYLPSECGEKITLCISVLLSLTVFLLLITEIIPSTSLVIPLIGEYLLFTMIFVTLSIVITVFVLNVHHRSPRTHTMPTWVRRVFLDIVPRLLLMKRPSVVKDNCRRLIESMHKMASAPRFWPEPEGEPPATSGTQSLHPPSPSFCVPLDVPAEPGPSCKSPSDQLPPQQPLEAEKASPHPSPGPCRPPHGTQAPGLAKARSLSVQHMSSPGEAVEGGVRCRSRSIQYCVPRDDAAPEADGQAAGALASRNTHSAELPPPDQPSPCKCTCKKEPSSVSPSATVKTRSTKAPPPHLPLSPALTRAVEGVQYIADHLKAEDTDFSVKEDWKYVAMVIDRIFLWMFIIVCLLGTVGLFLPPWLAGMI
T1 sequence (P30926 22-498): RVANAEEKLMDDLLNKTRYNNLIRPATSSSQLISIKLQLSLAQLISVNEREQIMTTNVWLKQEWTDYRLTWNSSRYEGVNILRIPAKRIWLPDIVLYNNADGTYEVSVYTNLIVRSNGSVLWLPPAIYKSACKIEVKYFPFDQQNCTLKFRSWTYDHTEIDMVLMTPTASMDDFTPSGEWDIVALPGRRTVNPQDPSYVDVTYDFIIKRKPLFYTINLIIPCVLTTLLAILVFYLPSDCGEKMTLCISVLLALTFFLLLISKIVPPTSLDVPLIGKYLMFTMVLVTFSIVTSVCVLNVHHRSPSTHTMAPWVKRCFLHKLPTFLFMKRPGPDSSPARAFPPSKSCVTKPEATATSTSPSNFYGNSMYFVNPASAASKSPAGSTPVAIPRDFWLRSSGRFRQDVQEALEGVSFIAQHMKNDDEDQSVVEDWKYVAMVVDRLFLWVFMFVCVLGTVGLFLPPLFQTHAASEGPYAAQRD

[5] = Cardiovascular safety, guinea pig iv; assay type: in vivo; details: guinea pig, in vivo; intravenous
[6] = tested on: blood pressure, heart rate, ECG; assay: Cardiovascular safety, guinea pig iv; assay type: in vivo
[7] = target: T2, muscarinic M4 (Homo sapiens, UniProt P08173); assay: Follow-up dose response binding assay (CEREP)
T2 construct: CEREP (contract laboratory, per the earlier reading)
T2 sequence (P08173 whole entry): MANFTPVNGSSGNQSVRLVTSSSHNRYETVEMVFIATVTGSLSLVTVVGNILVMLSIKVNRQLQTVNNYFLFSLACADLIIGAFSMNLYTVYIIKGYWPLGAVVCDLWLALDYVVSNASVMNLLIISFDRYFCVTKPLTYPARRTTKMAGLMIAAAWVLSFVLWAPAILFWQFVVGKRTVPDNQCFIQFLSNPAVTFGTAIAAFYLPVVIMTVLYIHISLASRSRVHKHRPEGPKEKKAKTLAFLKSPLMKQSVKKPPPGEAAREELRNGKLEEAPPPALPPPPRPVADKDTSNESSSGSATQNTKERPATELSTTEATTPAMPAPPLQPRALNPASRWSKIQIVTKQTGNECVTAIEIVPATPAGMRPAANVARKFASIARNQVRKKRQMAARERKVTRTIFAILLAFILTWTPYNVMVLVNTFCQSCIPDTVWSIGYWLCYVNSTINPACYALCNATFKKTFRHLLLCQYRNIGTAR

[8] = 2-week and 13-week repeated dose TK studies, rat; assay type: in vivo
Procedure: In 2-week and 13-week repeated dose TK studies in rat, animals were dosed orally at 30, 100 or 200 mg/kg/day (2-week study) or at 30, 100 or 300 mg/kg/day (13-week study). […] In the 2-week study, there was a 1.2 to 2.2-fold increase in exposure from Day 1 to 15. In the 13-week study, there was a general increase from Day 1 to 29 and roughly equivalent exposure from Day 29 to 91.

[9] = target: T1, a4b4; assay: Receptor function a4b4, Ca++ flux; assay type: cell-based
[10] = target: hERG channel (Homo sapiens, UniProt Q12809); assay: Cardiovascular safety, hERG channel in vitro; assay type: cell-based
Chain of hERG channel (Q12809 whole entry): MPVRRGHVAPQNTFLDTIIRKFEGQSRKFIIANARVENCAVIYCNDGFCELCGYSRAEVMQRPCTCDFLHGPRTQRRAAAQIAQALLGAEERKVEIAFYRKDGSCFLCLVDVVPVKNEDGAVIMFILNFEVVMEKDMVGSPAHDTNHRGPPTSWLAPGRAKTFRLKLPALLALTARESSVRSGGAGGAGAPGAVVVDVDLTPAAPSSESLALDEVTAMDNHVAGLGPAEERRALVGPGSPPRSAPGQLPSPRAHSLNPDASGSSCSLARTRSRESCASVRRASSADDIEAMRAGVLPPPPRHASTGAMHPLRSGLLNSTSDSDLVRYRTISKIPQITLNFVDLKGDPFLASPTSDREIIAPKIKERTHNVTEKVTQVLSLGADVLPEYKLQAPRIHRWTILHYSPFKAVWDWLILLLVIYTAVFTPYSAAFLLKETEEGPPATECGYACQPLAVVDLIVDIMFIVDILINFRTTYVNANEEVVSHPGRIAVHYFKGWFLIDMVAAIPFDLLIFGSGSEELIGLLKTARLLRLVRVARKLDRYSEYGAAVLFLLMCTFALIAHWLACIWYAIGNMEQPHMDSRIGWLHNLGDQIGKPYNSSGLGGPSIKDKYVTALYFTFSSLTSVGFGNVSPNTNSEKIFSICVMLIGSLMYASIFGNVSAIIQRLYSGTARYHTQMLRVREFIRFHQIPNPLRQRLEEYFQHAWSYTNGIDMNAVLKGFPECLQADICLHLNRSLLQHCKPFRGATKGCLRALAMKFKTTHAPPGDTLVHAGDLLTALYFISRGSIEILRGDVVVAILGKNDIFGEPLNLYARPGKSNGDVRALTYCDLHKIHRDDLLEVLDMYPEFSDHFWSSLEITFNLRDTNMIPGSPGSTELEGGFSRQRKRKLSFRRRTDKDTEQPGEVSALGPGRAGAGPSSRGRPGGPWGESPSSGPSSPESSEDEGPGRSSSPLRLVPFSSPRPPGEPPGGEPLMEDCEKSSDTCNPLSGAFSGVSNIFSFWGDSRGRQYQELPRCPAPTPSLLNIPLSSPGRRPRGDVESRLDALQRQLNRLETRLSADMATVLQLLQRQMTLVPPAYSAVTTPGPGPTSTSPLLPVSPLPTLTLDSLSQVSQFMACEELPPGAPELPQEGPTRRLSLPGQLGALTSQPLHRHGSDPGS

[11] = tested on: muscarinic (non-selective) sites; assay: In vitro binding (off-target receptors) at 10 μM; details: hemigalactarate salt
[12] = 13-week repeat-dose oral toxicity in rats; assay type: in vivo, rat
Procedure: Compound 1 was given to rats once daily for at least 13 weeks via oral gavage at doses of 30, 100, or 300 mg/kg/day. Two of 15 females receiving 300 mg/kg/day died. Clinical signs in males and females in this high-dose group included; reduced food consumption, anogenital staining, lacrimation, chromodacryorrhea, and tremors. Laboratory results included marginally lower RBC mass that correlated with elevated reticulocyte counts with recovery; elevated liver enzymes and bilirubin throughout the dosing period, with evidence of resolution during recovery urinary changes, including increased urine volume, elevated urinary protein, and higher bilirubin and urobilinogen, with resolution during recovery. Rats receiving doses of 100 mg/kg/day and higher had clinical signs that included excessive salivation, tan brown muzzle, closed or partially closed eyelids, and reduced body weight. Laboratory results included elevated WBC (lymphocytes and neutrophils), with recovery; elevated bilirubin; and a slight decrease in total serum protein (globulins and albumin). […] At doses ≥100 mg/kg/day, microscopic findings of centrilobular hepatocellular hypertrophy, medullary adrenal gland cell hypertrophy, mucosal epithelial cell hyperplasia of the small intestine, and increased extramedullary hematopoiesis and hemosiderin deposits in the red pulp of the spleen were observed. […] Accordingly, the NOAEL was considered to be 30 mg/kg/day. […] AUC and Cmax increased between Day 1 and Day 29.

[13] = tested on: α4β2 (rat), a4b2*/a6b2*; assay: Receptor function, [3H]-dopamine release from rat striatal synaptosomes; assay type: biochemical
[14] = target: T3, a3b2 (Homo sapiens, UniProt P17787+P32297); assay: Receptor function a3b2, Ca++ flux; assay type: cell-based
T3 construct: expressed in transfected cells
T3 sequence (P32297 32-505): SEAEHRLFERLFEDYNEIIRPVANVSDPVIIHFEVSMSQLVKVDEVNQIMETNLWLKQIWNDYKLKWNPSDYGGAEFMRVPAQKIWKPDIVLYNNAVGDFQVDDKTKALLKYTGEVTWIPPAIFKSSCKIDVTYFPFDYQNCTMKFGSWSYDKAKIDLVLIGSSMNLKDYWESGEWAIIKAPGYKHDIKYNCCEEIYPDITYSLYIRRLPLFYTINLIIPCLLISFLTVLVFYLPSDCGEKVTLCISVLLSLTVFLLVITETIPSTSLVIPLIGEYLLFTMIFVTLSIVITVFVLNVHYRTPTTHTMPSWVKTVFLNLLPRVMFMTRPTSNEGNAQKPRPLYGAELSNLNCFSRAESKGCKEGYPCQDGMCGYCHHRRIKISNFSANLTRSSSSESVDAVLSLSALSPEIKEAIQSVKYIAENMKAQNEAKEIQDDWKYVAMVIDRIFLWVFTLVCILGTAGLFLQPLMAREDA
T3 sequence (P17787 26-502): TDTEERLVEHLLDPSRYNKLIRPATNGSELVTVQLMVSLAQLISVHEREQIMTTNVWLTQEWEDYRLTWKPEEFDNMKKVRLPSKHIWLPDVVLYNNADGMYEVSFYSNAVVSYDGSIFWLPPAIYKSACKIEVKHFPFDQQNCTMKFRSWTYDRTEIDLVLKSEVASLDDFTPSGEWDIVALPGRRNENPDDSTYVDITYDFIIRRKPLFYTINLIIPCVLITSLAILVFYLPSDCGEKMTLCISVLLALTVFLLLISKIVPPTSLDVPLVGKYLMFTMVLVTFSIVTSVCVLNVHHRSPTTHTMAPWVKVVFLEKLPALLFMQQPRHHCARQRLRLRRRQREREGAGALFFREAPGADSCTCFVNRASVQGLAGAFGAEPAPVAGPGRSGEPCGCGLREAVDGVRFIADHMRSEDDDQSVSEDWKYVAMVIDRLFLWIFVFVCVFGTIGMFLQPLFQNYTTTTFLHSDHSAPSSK

[15] = 2.5, 5, 10 mg/kg po once daily for 5 days
[16] = female, rat, in vivo, po, 30 mg/kg/day
[17] = male, rat, in vivo, po, 30 mg/kg/day
[18] = [3H] DA release, Rat Striatal Synaptosomes
[19] = [3H]-DA release, rat striatal synaptosomes

**Q.** Which metabolic stability [1] does the source give for `C(=C\[C@H]1CCNC1)/c1cncnc1` [Compound 1, (R)-5-((E)-2-pyrrolidin-3-ylvinyl)pyrimidine] here?
**A.** relatively stable

**Q.** What about the half-life [2] of the same compound?
**A.** 78 to 252 min

**Q.** And the other findings ([3]; 5 mg/kg po)?
**A.** 5 mg/kg produced no other findings.

**Q.** What about the “ventricular extrasystole 10 to 25 minutes after dosing” value ([3]; 10 mg/kg po) of the same compound?
**A.** 10 mg/kg was associated with 1

**Q.** What about the emesis ([3]; 20 mg/kg po) of the same compound?
**A.** emesis were noted at 20 mg/kg.

**Q.** What about the “lengthening of the QT interval” value ([3]; 20 mg/kg po) of the same compound?
**A.** slight lengthening; also recorded: after dosing. In addition, slight

**Q.** What about the “ventricular extrasystole 10 to 25 minutes after dosing” value ([3]; 20 mg/kg po) of the same compound?
**A.** 20 mg/kg was associated with 1

**Q.** And the PQ interval [3, 15]?
**A.** tachycardia, and decreased PQ interval.

**Q.** What about the “QRS duration, QT interval, body temperature” value [3, 15] of the same compound?
**A.** There were no changes in the QRS

**Q.** What about the “accumulation after repeat dosing (TK)” value [3, 15] of the same compound?
**A.** sexes. No accumulation was observed after

**Q.** And the tachycardia [3, 15]?
**A.** pressure (mainly diastolic), marked

**Q.** And the “dose proportionality of Cmax and AUC (TK)” value ([3]; 2.5, 5, 10 mg/kg po, either sampling day)?
**A.** TK: There were no proportional increases

**Q.** And the “increase in blood pressure and bursts of sinus tachycardia” value ([3]; 5, 10, 20 mg/kg po, all dogs)?
**A.** Compound 1 produced a transient and slight

**Q.** And the “emesis shortly after dosing” value ([3]; all doses)?
**A.** exhibited emesis

**Q.** And the “systolic and diastolic blood pressure and heart rate” value ([3]; oral doses up to 10 mg/kg)?
**A.** non-dose dependent increase

**Q.** What about the Ki [4] of the same compound?
**A.** 680 nM

**Q.** And the MTD [5]?
**A.** 0.3 mg/kg

**Q.** What about the “effects on QTc” value ([6]; 1 mg/kg iv) of the same compound?
**A.** doses up to 0.3 mg/kg, mild and reversible

**Q.** And the lethality ([6]; 10 mg/kg iv)?
**A.** 10 mg/kg was lethal.

**Q.** And the “peak increase in heart rate” value ([6]; 1, 3, and 10 mg/kg iv)?
**A.** rate was 41 beats per minute.

**Q.** And the “peak increase in systolic blood pressure” value ([6]; 1, 3, and 10 mg/kg iv)?
**A.** 58 mmHg; and the peak increase in heart

**Q.** And the “time in which effects resolved” value ([6]; 1 and 3 mg/kg iv)?
**A.** 3 min

**Q.** And the “effects on QTc/ECG” value ([6]; 3 and 10 mg/kg iv)?
**A.** effects on QTc at 1 mg/kg, and severe

**Q.** What about the “effects on ECGs” value ([6]; doses up to 0.3 mg/kg iv) of the same compound?
**A.** Compound 1 caused no effects on ECGs at

**Q.** And the Ki [7]?
**A.** 5.8 µM

**Q.** What about the “exposure parameters (Cmax and AUC0-24) vs dose” value ([8]; Days 1 and 15 (2-week), Days 1, 29 and 91 (13-week)) of the same compound?
**A.** increased roughly in proportion to dose

**Q.** What about the Tmax ([8]; both sexes, rat, plasma, oral 30-300 mg/kg/day, 2-week and 13-week studies) of the same compound?
**A.** 0.5 to 2 h

**Q.** And the “exposure in females compared with males” value ([8]; both studies)?
**A.** generally higher

**Q.** And the EC50 [9]?
**A.** 4.3 µM

**Q.** And the Emax [9]?
**A.** 98%

**Q.** And the IC50 [10]?
**A.** 285 µM

**Q.** What about the binding affinity [11] of the same compound?
**A.** sites (51%).

**Q.** What about the NOAEL at 13 weeks ([12]; both sexes, in vivo, 13-week rat study, oral, as summarised) of the same compound?
**A.** 30 mg/kg

**Q.** What about the Tmax ([12]; both sexes, rat, in vivo, po) of the same compound?
**A.** 0.5 to 2 h

**Q.** And the NOAEL at 13 weeks ([12]; both sexes, rat, in vivo, rats, oral gavage once daily, 13 weeks)?
**A.** 30 mg/kg/day

**Q.** And the AUC [12, 16]?
**A.** 10200 ng·h/mL

**Q.** What about the Cmax [12, 16] of the same compound?
**A.** 3150 ng/mL

**Q.** And the deaths ([12]; females, 300 mg/kg/day)?
**A.** Two of 15

**Q.** And the “incidence of minimal hepatocellular hypertrophy” value ([12]; male, rat, in vivo, 30 mg/kg/day, 13 weeks)?
**A.** 7 of 10

**Q.** What about the AUC [12, 17] of the same compound?
**A.** 12100 ng·h/mL

**Q.** And the Cmax [12, 17]?
**A.** 2570 ng/mL

**Q.** And the “DA Release ratio” value [13, 18]?
**A.** 0.55 DA

**Q.** What about the EC50 [13, 18] of the same compound?
**A.** 3.9 µM and 3.93 µM

**Q.** And the Emax [13, 18]?
**A.** 110 and 114

**Q.** And the EC50 [13, 19]?
**A.** 3.93 µM

**Q.** And the Emax [13, 19]?
**A.** 114 % of nicotine

**Q.** What about the “agonist type at the α4β2 subtype” value [13, 19] of the same compound?
**A.** nM. Compound 1 is a full agonist at the α4β2

**Q.** And the EC50 ([14]; Human a3b2, Ca++ Flux)?
**A.** 8.7 µM

**Q.** And the Emax ([14]; Human a3b2, Ca++ Flux)?
**A.** 66%

**Q.** What about the agonist type ([14]; α3β2 subtype) of the same compound?
**A.** partial agonist
